Measured values from patent US12516038B2, “Inhibitors of antigen presentation by HLA-DR” (Janssen Pharmaceutica NV, priority 2020, dated 2026).

Legend:
[1] = target: HLA-DRB1*0401 (Homo sapiens (Human), UniProt P01903+P01911, A100K/A169T/DEL228-266/F76Y/I96L/K127E/L162R/M171V/N62H/P40V/Q125Y/R42H/S133A/S149N/S66Y/V115G/V209L/W38E); test: HLA-DR4 HTRF assay; assay type: binding; conditions: inhibition of loading of Alexa Fluor 647-labeled Cit-CII peptide onto HLA-DR4 (CLIP cleaved)
Description: (§1) The screening was made through two sets of HLA-DR/peptide-dependent assays: a peptide-dependent Homogeneous Time Resolved Fluorescence (HTRF) binding assay followed by an HLA-DR dependent, peptide-specific T cell functional assay (HLA-DR4-restricted peptide-specific T cell-based assay hybridoma assay). The HTRF binding assay was designed to measure the ability of the small molecule to inhibit the loading of a fluorescently labeled high-affinity peptide onto HLA-DR peptide binding groove. The peptide-specific T cell functional assay assesses T cell activation resulting from proper peptide presentation onto HLA-DR expressed on the surface of the antigen-presenting cells to the T cell and is used to screen compounds able to inhibit such HLA-DR/peptide-dependent T cell activation.
The HLA-DR4 HTRF assay is based on HTRF technology and designed to measure ability of compounds to prevent loading of high-affinity Alexa Fluor 647-labeled Citrullinated Collagen 111236-1249 peptide (named Cit-CII/AF647, aa1236-1249, LQYM-Cit-ADQAAGGLR; Alexa Fluor 647 dye commercially available from Invitrogen) onto HLA-DRB1*0401. The HTRF assay technology is based on the energy transfer between two fluorophores, a donor and an acceptor, when in close proximity. The HLA-DR4 protein construct was uniquely designed for this assay and has (i) the α and […] subunits fused to human Fc chains and (ii) the invariant chain-associated peptide (CLIP peptide, aa85-101), the universal moderate/low-affinity HLA-DR binder, attached to the beta chain through a HRV3C protease-cleavable linker.
Because of the low stability of peptide free HLA-DR4 heterodimer, the construct was purified and delivered with CLIP peptide attached to the N-terminal of the β chain. The HLA-DR4 heterodimer was pre-treated with 3 μL HRV3C protease (Novagen E71493-3) (˜2 U/μL) per mg of the cleavable protein to cleave CLIP peptide and incubated overnight (>16 hrs) at 4° C. This method yielded at least 80% cleavage and allowed the CLIP peptide to be potentially exchanged with the fluorescently labeled high affinity cit-CII1236-1249 peptide. A batch of […] protein with CLIP cleaved was prepared for multiple experiments and was stable for several months when stored at 4° C.
In this assay, anti-human Fc antibody labeled with Tb-Cryptate probe was used as the donor (commercially available from Cisbio—PAb Anti-human IgG-Tb Cryptate, Cat #61HFCTAB) and high affinity peptide Citrullinated CII (cit-CII) labeled with Alexa 647 fluorophore was utilized as the acceptor. Inhibitors of the exchange of the pre-cleaved CLIP peptide for the high affinity cit-CII1236-1249 peptide onto HLA-DRB1*04:01 caused a decrease in HTRF signal as measured by the ratio of the 665 nm/620 nm emitted signal. Screening compounds were robotically pre-dispensed (150 nL, Hummingbird, DigiLab/CyBio AG) onto black, round bottom, nontreated, 1536-well assay plates (Corning #3939), were incubated with 3 nM HLA-DR4 (with CLIP cleaved) plus 1 nM Human IgG-Tb (anti-Fc-Tb) Antibody for 45 min prior to addition of 40 nM Cit-CII peptide labeled with Alexa-647. The negative control was DMSO plus 1 nM Human IgG-Tb (anti-Fc-Tb) Antibody, incubated for 45 minutes before addition of 40 nM Cit-CII peptide labeled with Alexa-647. The positive control was DMSO plus 3 nM HLA-DR4 (with CLIP cleaved) plus 1 nM Human IgG-Tb (anti-Fc-Tb) Antibody with 40 nM Cit-CII peptide labeled with Alexa-647 added after a 45-minute incubation. Plates were centrifuged at 1000 rpm for 1 minute and then incubated at 37° C., at 90% relative humidity for 90 minutes. After incubation, plates were read on a spectrophotometer, the Pherastar FS (BMG Labtech), in HTRF mode. The HTRF ratio as well as percent inhibition was calculated. Curve fitting and IC50 calculation for dose response data was performed by Microsoft Excel, 3DX (Janssen proprietary software) or Graphpad Prism (Graphpad Software, San Diego, CA). […]

[2] = tested on: HLA-DR4 restricted mouse T cell hybridoma line (DR4.CII.36.8) with HLA-DRB1*04:01-expressing Boleth cells; test: HLA-DR4-restricted peptide-specific T cell-based assay (hybridoma assay); conditions: Mus musculus, T-cell, 6 h, inhibition of IL-2 production, CII259-273 peptide presented by Boleth cells
Description: as §1
HLA-DR4-Restricted Peptide-Specific T Cell-Based Assay (Hybridoma Assay)
The hybridoma assay was used to measure compound inhibition of TL-2 production from an HLA-DR4 restricted mouse T cell hybridoma line (DR4.CII.36.8) that was antigen-specific for collagen II259-273 (CII259-273) peptide when presented with an HLA-DR4 expressing Antigen Presenting Cell (APC) cell line (i.e., Boleth).
To the HLA-DRB1*04:01-expressing B cell line (Boleth cell line from International Histocompatibility Working Group (IHWG), ref #IHW09031) was presented the collagen II 259-273 peptide (CII259-273, GIAGFKGEQGPKGEP) to mouse T cell hybridoma (DR4.CII.36.8 T cell hybridoma; clone 36.8, expressing a CII259-273-specific, HLA-DRB1*04:01-restricted T cell receptor). Upon proper CII259-273 peptide presentation, the T cell hybridoma was activated and thus produced IL-2 cytokine, whose level in the cell culture supernatant was detected using mouse IL-2 AlphaLISA kit (Perkin Elmer, Cat: AL511F).
This assay was performed in a 384-well plate (polypropylene V-bottom Greiner bio-one, ref #784075) by: (i) pre-incubation of 20 μL of 1.25 million/mL Boleth cells (25,000 cells) resuspended in DMEM/1% fetal calf serum (FCS; Gibco, ref #16140-071) with 20 μL of 2.5× final concentration of compound of interest in DMEM/1% serum/0.75% DMSO at 37° C. for 1 hr in the incubator, then (ii) 10 μL of 5 million/mL (50,000 cells) DR4.CII.36.8 T cell hybridoma cells resuspended in DMEM/1% FCS was added and incubated for 6 h at 37° C. in the incubator. Supernatant was then collected and mouse IL-2 detected using AlphaLISA kit (ref #AL511F). Compounds were tested in duplicate, with 8-point titration. Mean±SD of AlphaLISA units at each compound concentration was used for compound IC50 calculation. The negative control for this experiment was run without peptide stimulation and used a DMSO vehicle wherein no compound of interest was added. The positive control was run with peptide stimulation and used a DMSO vehicle wherein no compound of interest was added. Both the negative and positive controls were run in 8 replicates each. Curve fitting and IC50 calculation for dose response data was performed by GraphPad software 6 or higher (GraphPad Software, San Diego, CA). Dose response data was plotted versus the log of compound concentration and IC50 was determined using 4-parameter logistic (4-PL) curve fitting.

SMILES | IC50 [1] [µM] | IC50 [2] [µM]
Cc1cnccc1[C@H](Oc1ccc2c(c1)OCCC2=O)c1ccc(C(N)=O)cc1 (single isomer, unassigned) [Example 21a, (*R)-4-((3-Methylpyridin-4-yl)((4-oxochroman-7-yl)oxy)methyl)benzamide] | 1 | 5.4
Cc1cnccc1[C@@H](Oc1ccc2c(c1)OCCC2=O)c1ccc(C(N)=O)cc1 (single isomer, unassigned) [Example 21b, (*S)-4-((3-Methylpyridin-4-yl)((4-oxochroman-7-yl)oxy)methyl)benzamide] | 0.64 | 5.4
COc1cnccc1[C@H](Oc1ccc2c(c1)OCCC2=O)c1ccc(C(N)=O)cc1 (single isomer, unassigned) [Example 23a, (*R)-4-((3-methoxypyridin-4-yl)((4-oxochroman-7-yl)oxy)methyl)benzamide] | 0.45 | 10
NC(=O)c1ccc([C@@H](Oc2ccc3c(c2)OCCC3=O)c2ccncc2-c2ccccc2)cc1 (single isomer, unassigned) [Example 25a, (*R)-4-(((4-oxochroman-7-yl)oxy)(3-phenylpyridin-4-yl)methyl)benzamide] | 0.48 | 6.4
NC(=O)c1ccc([C@@H](Oc2ccc3c(c2)OCCC3=O)c2ccncc2N)cc1 (single isomer, unassigned) [Example 27a, (*R)-4-((3-aminopyridin-4-yl)((4-oxochroman-7-yl)oxy)methyl)benzamide] | 7.3 | 13
NC(=O)c1ccc([C@H](Oc2ccc3c(c2)OCCC3=O)c2ccncc2N)cc1 (single isomer, unassigned) [Example 27b, (*S)-4-((3-aminopyridin-4-yl)((4-oxochroman-7-yl)oxy)methyl)benzamide] | 6.4 | > 15
NC(=O)c1ccc([C@@H](Oc2ccc3c(c2)OCCC3=O)c2ccnc(N)c2)cc1 (single isomer, unassigned) [Example 28a, (*R)-4-((2-aminopyridin-4-yl)((4-oxochroman-7-yl)oxy)methyl)benzamide] | 1.8 | 6.9
NC(=O)c1ccc([C@@H](Oc2ccc3c(c2)OCCC3=O)c2ccc(Cl)cc2)cc1 (single isomer, unassigned) [Example 30a, (*R)-4-((4-Chlorophenyl)((4-oxochroman-7-yl)oxy)methyl)benzamide] | 0.93 | 5.9
NC(=O)c1ccc([C@H](Oc2ccc3c(c2)OCCC3=O)c2ccc(Cl)cc2)cc1 (single isomer, unassigned) [Example 30b, (*S)-4-((4-Chlorophenyl)((4-oxochroman-7-yl)oxy)methyl)benzamide] | 1.2 | 6.4
NC(=O)c1ccc([C@@H](Oc2ccc3c(c2)OCCC3=O)c2ccccn2)cc1 (single isomer, unassigned) [Example 32a, (*R)-4-(((4-oxochroman-7-yl)oxy)(pyridin-2-yl)methyl)benzamide] | 3.6 | 8.2
NC(=O)c1ccc([C@H](Oc2ccc3c(c2)OCCC3=O)c2ccccn2)cc1 (single isomer, unassigned) [Example 32b, (*S)-4-(((4-oxochroman-7-yl)oxy)(pyridin-2-yl)methyl)benzamide] | 1.9 | > 15
NC(=O)c1ccc([C@@H](Oc2ccc3c(c2)OCCC3=O)c2ccncn2)cc1 (single isomer, unassigned) [Example 33a, (*R)-4-(((4-Oxochroman-7-yl)oxy)(pyrimidin-4-yl)methyl)benzamide] | 0.58 | 8.7
NC(=O)c1ccc([C@H](Oc2ccc3c(c2)OCCC3=O)c2ccncn2)cc1 (single isomer, unassigned) [Example 33b, (*S)-4-(((4-Oxochroman-7-yl)oxy)(pyrimidin-4-yl)methyl)benzamide] | 0.59 | > 15
Cc1cc([C@@H](Oc2ccc3c(c2)OCCC3=O)c2ccncc2)ccc1C(N)=O (single isomer, unassigned) [Example 35a, (*R)-2-methyl-4-(((4-oxochroman-7-yl)oxy)(pyridin-4-yl)methyl)benzamide] | 0.96 | > 15
Cc1cc([C@H](Oc2ccc3c(c2)OCCC3=O)c2ccncc2)ccc1C(N)=O (single isomer, unassigned) [Example 35b, (*S)-2-methyl-4-(((4-oxochroman-7-yl)oxy)(pyridin-4-yl)methyl)benzamide] | 0.83 | 5.2
Cc1cc(C(N)=O)ccc1[C@@H](Oc1ccc2c(c1)OCCC2=O)c1ccncc1 (single isomer, unassigned) [Example 36b, (*S)-3-methyl-4-(((4-oxochroman-7-yl)oxy)(pyridin-4-yl)methyl)benzamide] | 0.57 | 5.1
C[C@@H]1CC(=O)c2ccc(O[C@H](c3ccncc3)c3ccc(C(N)=O)cc3)cc2O1 (single isomer, unassigned) [Example 39a, 4-((*S)—(((*R)-2-Methyl-4-oxochroman-7-yl)oxy)(pyridin-4-yl)methyl)benzamide] | 1.1 | 14
C[C@H]1CC(=O)c2ccc(O[C@H](c3ccncc3)c3ccc(C(N)=O)cc3)cc2O1 (single isomer, unassigned) [Example 39d, 4-((*S)—(((*S)-2-Methyl-4-oxochroman-7-yl)oxy)(pyridin-4-yl)methyl)benzamide] | 1 | 15
